US6355799B1, “Substituted benzene compounds, process for their preparation, and herbicidal and defoliant compositions containing them” (ISK Americas Incorporated, priority 1997, dated 2002)

Key:
Format in all cases: in vivo
[1] = test system: upland rice (Oryza sp., var. Tebonnet, RICE); experiment: Post-emerge test, crop safety; conditions: post-emerge, 14 days after application, rating scale 0-100
How it was run: (§1)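 Compounds in acetone were track-sprayed at 187 l/ha, 15–1000 g ai/ha, onto sandy loam pots. Pre-emerge seeds were sown one day before spraying, with surface watering afterwards. Post-emerge plants were at the 2–3 leaf stage and sprayed with 0.25% v/v non-ionic surfactant. Injury was rated 0–100 at 14 days.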

[2] = test system: field corn (Zea mays L., var. Dekalb 535, CORN); experiment: Post-emerge test, crop safety; conditions: post-emerge, 14 days after application, rating scale 0-100
How it was run: as §1

[3] = test system: barnyardgrass (Echinochloa crus-galli, ECHCG); experiment: Post-emerge test, greenhouse herbicide activity screening; conditions: post-emerge, 14 days after application, rating scale 0-100
How it was run: (§2)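 Each test used a mechanized track sprayer delivering 187 l/ha of acetone solution at 15–1000 g ai/ha. Post-emerge foliage at 2–3 leaves was treated with added 0.25% v/v non-ionic surfactant and bottom-watered only. Injury was assessed on day 14, where 100 means total kill.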

[4] = test system: large crabgrass (Digitaria sanguinalis, DIGSA); experiment: as above; conditions: post-emerge, 14 days after application, rating scale 0-100
How it was run: as §2

[5] = test system: redroot pigweed (Amaranthus retroflexus, AMARE); experiment: as above; conditions: post-emerge, 14 days after application, rating scale 0-100
How it was run: as §2

[6] = test system: lambsquarters (Chenopodium album, CHEAL); experiment: as above; conditions: post-emerge, 14 days after application, rating scale 0-100
How it was run: as §2

[7] = test system: green foxtail (Setaria viridis, SETVI); experiment: as above; conditions: post-emerge, 14 days after application, rating scale 0-100
How it was run: as §2

[8] = test system: sicklepod (Cassia obtusifolia, CASOB); experiment: as above; conditions: post-emerge, 14 days after application, rating scale 0-100
How it was run: as §2

[9] = test system: velvetleaf (Abutilon theophrasti, ABUTH); experiment: as above; conditions: post-emerge, 14 days after application, rating scale 0-100
How it was run: as §2

[10] = test system: ivyleaf morningglory (Ipomoea hederacea, IPOHE); experiment: as above; conditions: post-emerge, 14 days after application, rating scale 0-100
How it was run: as §2

[11] = test system: johnsongrass (Sorghum halepense, SORHA); experiment: as above; conditions: post-emerge, 14 days after application, rating scale 0-100
How it was run: as §2

[12] = test system: common ragweed (Ambrosia artemisizfolia L., AMBEL); experiment: as above; conditions: post-emerge, 14 days after application, rating scale 0-100
How it was run: as §2

[13] = test system: upland rice (Oryza sp., var. Tebonnet, RICE); experiment: Pre-emerge test, crop safety; conditions: rated 14 days after application, 0 = no damage, 100 = complete death
How it was run: (§3)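 Herbicidal damage is scored 0 (none) to 100 (complete plant death) two weeks after a simulated field spray. Rates span 15–1000 g ai/ha, delivered in acetone at 187 l/ha. For post-emergence treatments, plants have 2–3 leaves and the spray carries 0.25% v/v non-ionic surfactant.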

[14] = test system: field corn (Zea mays L., var. Dekalb 535, CORN); experiment: Pre-emerge test, crop safety; conditions: rated 14 days after application, 0 = no damage, 100 = complete death
How it was run: as §3

[15] = test system: redroot pigweed (Amaranthus retroflexus, AMARE); experiment: Pre-emerge test, greenhouse herbicide activity screening; conditions: rated 14 days after application, 0 = no damage, 100 = complete death
How it was run: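 Visual ratings on a 0-100 scale (0 no damage, 100 all plants dead) were taken at 14 days after treatment. Rates of 15-1000 g ai/ha in acetone, 187 l/ha, were sprayed onto soil one day after planting (pre-emerge) or onto 2-3 leaf plants with 0.25% v/v surfactant (post-emerge).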

[16] = test system: barnyardgrass (Echinochloa crus-galli, ECHCG); experiment: as above; conditions: rated 14 days after application, 0 = no damage, 100 = complete death
How it was run: as §1

[17] = test system: large crabgrass (Digitaria sanguinalis, DIGSA); experiment: as above; conditions: rated 14 days after application, 0 = no damage, 100 = complete death
How it was run: as §1

[18] = test system: lambsquarters (Chenopodium album, CHEAL); experiment: as above; conditions: rated 14 days after application, 0 = no damage, 100 = complete death
How it was run: as §1

[19] = test system: green foxtail (Setaria viridis, SETVI); experiment: as above; conditions: rated 14 days after application, 0 = no damage, 100 = complete death
How it was run: as §1

[20] = test system: sicklepod (Cassia obtusifolia, CASOB); experiment: as above; conditions: rated 14 days after application, 0 = no damage, 100 = complete death
How it was run: as §1

[21] = test system: velvetleaf (Abutilon theophrasti, ABUTH); experiment: as above; conditions: rated 14 days after application, 0 = no damage, 100 = complete death
How it was run: as §1

[22] = test system: ivyleaf morningglory (Ipomoea hederacea, IPOHE); experiment: as above; conditions: rated 14 days after application, 0 = no damage, 100 = complete death
How it was run: as §1

[23] = test system: johnsongrass (Sorghum halepense, SORHA); experiment: as above; conditions: rated 14 days after application, 0 = no damage, 100 = complete death
How it was run: as §1

[24] = test system: common ragweed (Ambrosia artemisizfolia L., AMBEL); experiment: as above; conditions: rated 14 days after application, 0 = no damage, 100 = complete death
How it was run: as §1

## COc1c(Cl)cc(F)c(-n2c(=O)cc(C(F)(F)F)n(C)c2=O)c1NC(=O)c1ccc(F)cc1F [Compound 2-42, 3-[4-chloro-2-(2,4difluorobenzoyl)amino-6-fluoro-3-methoxyphenyl]-1-methyl-6-trifluoromethyl-2,4(1H 3H)-pyrimidinedione]
[1]; 63 g ai/ha
  phytotoxicity rating RICE: 60
[1]; 250 g ai/ha
  phytotoxicity rating RICE: 90
[2]; 63 g ai/ha
  phytotoxicity rating CORN: 10
[2]; 250 g ai/ha
  phytotoxicity rating CORN: 60
[3]; 63 g ai/ha
  phytotoxicity rating ECHCG: 30
[3]; 250 g ai/ha
  phytotoxicity rating ECHCG: 80
[4]; 63 g ai/ha
  phytotoxicity rating DIGSA: 0
[4]; 250 g ai/ha
  phytotoxicity rating DIGSA: 30
[5]; 63 g ai/ha
  phytotoxicity rating AMARE: 95
[5]; 250 g ai/ha
  phytotoxicity rating AMARE: 100
[6]; 63 g ai/ha
  phytotoxicity rating CHEAL: 90
[6]; 250 g ai/ha
  phytotoxicity rating CHEAL: 100
[7]; 63 g ai/ha
  phytotoxicity rating SETVI: 50
[7]; 250 g ai/ha
  phytotoxicity rating SETVI: 80
[8]; 63 g ai/ha
  phytotoxicity rating CASOB: 65
[8]; 250 g ai/ha
  phytotoxicity rating CASOB: 100
[9]; 63 g ai/ha
  phytotoxicity rating ABUTH: 100
[9]; 250 g ai/ha
  phytotoxicity rating ABUTH: 100
[10]; 63 g ai/ha
  phytotoxicity rating IPOHE: 100
[10]; 250 g ai/ha
  phytotoxicity rating IPOHE: 100
[11]; 63 g ai/ha
  phytotoxicity rating SORHA: 10
[11]; 250 g ai/ha
  phytotoxicity rating SORHA: 95
[12]; 63 g ai/ha
  phytotoxicity rating AMBEL: 70
[12]; 250 g ai/ha
  phytotoxicity rating AMBEL: 95
[13]; 63 g ai/ha
  Pre-emerge phytotoxicity rating (0-100), crop damage, RICE: 90
[13]; 250 g ai/ha
  Pre-emerge phytotoxicity rating (0-100), crop damage, RICE: 99
[14]; 63 g ai/ha
  Pre-emerge phytotoxicity rating (0-100), crop damage, CORN: 85
[14]; 250 g ai/ha
  Pre-emerge phytotoxicity rating (0-100), crop damage, CORN: 98
[15]; 63 g ai/ha
  Pre-emerge Herbicidal Activity, phytotoxicity rating (0-100), AMARE: 100
[15]; 250 g ai/ha
  Pre-emerge Herbicidal Activity, phytotoxicity rating (0-100), AMARE: 100
[16]; 63 g ai/ha
  Pre-emerge Herbicidal Activity, phytotoxicity rating (0-100), ECHCG: 100
[16]; 250 g ai/ha
  Pre-emerge Herbicidal Activity, phytotoxicity rating (0-100), ECHCG: 100
[17]; 63 g ai/ha
  Pre-emerge Herbicidal Activity, phytotoxicity rating (0-100), DIGSA: 100
[17]; 250 g ai/ha
  Pre-emerge Herbicidal Activity, phytotoxicity rating (0-100), DIGSA: 100
[18]; 63 g ai/ha
  Pre-emerge Herbicidal Activity, phytotoxicity rating (0-100), CHEAL: 100
[18]; 250 g ai/ha
  Pre-emerge Herbicidal Activity, phytotoxicity rating (0-100), CHEAL: 100
[19]; 63 g ai/ha
  Pre-emerge Herbicidal Activity, phytotoxicity rating (0-100), SETVI: 100
[19]; 250 g ai/ha
  Pre-emerge Herbicidal Activity, phytotoxicity rating (0-100), SETVI: 100
[20]; 63 g ai/ha
  Pre-emerge Herbicidal Activity, phytotoxicity rating (0-100), CASOB: 80
[20]; 250 g ai/ha
  Pre-emerge Herbicidal Activity, phytotoxicity rating (0-100), CASOB: 100
[21]; 63 g ai/ha
  Pre-emerge Herbicidal Activity, phytotoxicity rating (0-100), ABUTH: 100
[21]; 250 g ai/ha
  Pre-emerge Herbicidal Activity, phytotoxicity rating (0-100), ABUTH: 100
[22]; 63 g ai/ha
  Pre-emerge Herbicidal Activity, phytotoxicity rating (0-100), IPOHE: 100
[22]; 250 g ai/ha
  Pre-emerge Herbicidal Activity, phytotoxicity rating (0-100), IPOHE: 100
[23]; 63 g ai/ha
  Pre-emerge Herbicidal Activity, phytotoxicity rating (0-100), SORHA: 95
[23]; 250 g ai/ha
  Pre-emerge Herbicidal Activity, phytotoxicity rating (0-100), SORHA: 100
[24]; 63 g ai/ha
  Pre-emerge Herbicidal Activity, phytotoxicity rating (0-100), AMBEL: 100
[24]; 250 g ai/ha
  Pre-emerge Herbicidal Activity, phytotoxicity rating (0-100), AMBEL: 100
